Measured values taken from PubChem BioAssay (NCI).
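Compound exposure: 48 hours, 5 concentrations, 96-well plates. GI50 = concentration required for 50% inhibition of growth. The concentration for full growth arrest is given as TGI.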

Assays:
Test in all cases: NCI-60 cell line screen, 48 h
COLO 205 colon = tested on: COLO 205 colon
SF-539 CNS = tested on: SF-539 CNS
SF-295 CNS = tested on: SF-295 CNS
HS 578T breast = tested on: HS 578T breast
UACC-62 melanoma = tested on: UACC-62 melanoma
HCT-116 colon = tested on: HCT-116 colon
SN12C renal = tested on: SN12C renal
T-47D breast = tested on: T-47D breast
OVCAR-3 ovarian = tested on: OVCAR-3 ovarian
CAKI-1 renal = tested on: CAKI-1 renal
SK-MEL-28 melanoma = tested on: SK-MEL-28 melanoma
MOLT-4 leukemia = tested on: MOLT-4 leukemia
ACHN renal = tested on: ACHN renal
HOP-62 NSCLC = tested on: HOP-62 NSCLC
NCI-H226 lung = tested on: NCI-H226 lung
OVCAR-4 ovarian = tested on: OVCAR-4 ovarian
RXF 393 renal = tested on: RXF 393 renal
EKVX NSCLC = tested on: EKVX NSCLC
OVCAR-8 ovarian = tested on: OVCAR-8 ovarian
K-562 leukemia = tested on: K-562 leukemia
PC-3 prostate = tested on: PC-3 prostate
SW-620 colon = tested on: SW-620 colon
A498 renal = tested on: A498 renal
OVCAR-5 ovarian = tested on: OVCAR-5 ovarian
CCRF-CEM leukemia = tested on: CCRF-CEM leukemia
MDA-MB-231 breast = tested on: MDA-MB-231 breast
UACC-257 melanoma = tested on: UACC-257 melanoma
SK-OV-3 ovarian = tested on: SK-OV-3 ovarian
NCI-H522 lung = tested on: NCI-H522 lung
SF-268 CNS = tested on: SF-268 CNS
HL-60(TB) leukemia = tested on: HL-60(TB) leukemia
LOX IMVI melanoma = tested on: LOX IMVI melanoma
MDA-MB-435 = tested on: MDA-MB-435
NCI-H460 lung = tested on: NCI-H460 lung
SR leukemia = tested on: SR leukemia
SK-MEL-5 melanoma = tested on: SK-MEL-5 melanoma
SNB-75 CNS = tested on: SNB-75 CNS
HOP-92 NSCLC = tested on: HOP-92 NSCLC
HCC-2998 colon = tested on: HCC-2998 colon
UO-31 renal = tested on: UO-31 renal
NCI-H23 lung = tested on: NCI-H23 lung
DU-145 prostate = tested on: DU-145 prostate
HT29 colon = tested on: HT29 colon
SK-MEL-2 melanoma = tested on: SK-MEL-2 melanoma
A549 NSCLC = tested on: A549 NSCLC
786-0 renal = tested on: 786-0 renal
RPMI-8226 leukemia = tested on: RPMI-8226 leukemia
NCI/ADR-RES ovarian = tested on: NCI/ADR-RES ovarian
M14 melanoma = tested on: M14 melanoma
IGROV1 ovarian = tested on: IGROV1 ovarian
HCT-15 colon = tested on: HCT-15 colon
U251 CNS = tested on: U251 CNS
MCF7 breast = tested on: MCF7 breast
MALME-3M melanoma = tested on: MALME-3M melanoma
SNB-19 CNS = tested on: SNB-19 CNS
KM12 colon = tested on: KM12 colon
TK-10 renal = tested on: TK-10 renal

`O=C(Nc1cccc(C(F)(F)F)c1)Nc1cc(S(=O)(=O)NC2CC2)ccc1-c1ccsc1` gave a GI50 (COLO 205 colon) of 2.71 µM, a TGI (COLO 205 colon) of 7.41 µM and a GI50 (SF-539 CNS) of 4.22 µM. For the same molecule, the TGI (SF-539 CNS) was 16.4 µM, the GI50 (SF-295 CNS) was 3.16 µM and the TGI (SF-295 CNS) was 11.8 µM. The GI50 (HS 578T breast) was 8.96 µM, the TGI (HS 578T breast) was 35.8 µM and the GI50 (UACC-62 melanoma) was 2.93 µM. For the same molecule, the TGI (UACC-62 melanoma) was 13.8 µM, the GI50 (HCT-116 colon) was 3.51 µM and the TGI (HCT-116 colon) was 13.4 µM. For the same molecule, the GI50 (SN12C renal) was 4.33 µM, the TGI (SN12C renal) was 18.3 µM and the GI50 (T-47D breast) was 3.16 µM. The TGI (T-47D breast) was 15 µM, the GI50 (OVCAR-3 ovarian) was 4.02 µM and the TGI (OVCAR-3 ovarian) was 14.9 µM. For the same molecule, the GI50 (CAKI-1 renal) was 4.47 µM, the TGI (CAKI-1 renal) was 18.6 µM and the GI50 (SK-MEL-28 melanoma) was 5.1 µM. It also gave a TGI (SK-MEL-28 melanoma) of 18.5 µM, a GI50 (MOLT-4 leukemia) of 3.02 µM and a TGI (MOLT-4 leukemia) of 9.53 µM. The GI50 (ACHN renal) was 1.83 µM, the TGI (ACHN renal) was 3.61 µM and the GI50 (HOP-62 NSCLC) was 5.11 µM. It also gave a TGI (HOP-62 NSCLC) of 18.5 µM, a GI50 (NCI-H226 lung) of 4.82 µM and a TGI (NCI-H226 lung) of 19 µM. The GI50 (OVCAR-4 ovarian) was 3.78 µM, the TGI (OVCAR-4 ovarian) was 15.4 µM and the GI50 (RXF 393 renal) was 4.98 µM. For the same molecule, the TGI (RXF 393 renal) was 18.8 µM, the GI50 (EKVX NSCLC) was 2.45 µM and the TGI (EKVX NSCLC) was 12.2 µM. The GI50 (OVCAR-8 ovarian) was 4.07 µM, the TGI (OVCAR-8 ovarian) was 18.1 µM and the GI50 (K-562 leukemia) was 3.42 µM. It also gave a TGI (K-562 leukemia) of 13.5 µM, a GI50 (PC-3 prostate) of 3.4 µM and a TGI (PC-3 prostate) of 18.6 µM. For the same molecule, the GI50 (SW-620 colon) was 4.45 µM, the TGI (SW-620 colon) was 18.5 µM and the GI50 (A498 renal) was 2.45 µM. For the same molecule, the TGI (A498 renal) was 7.31 µM, the GI50 (OVCAR-5 ovarian) was 5.96 µM and the TGI (OVCAR-5 ovarian) was 20.2 µM. For the same molecule, the GI50 (CCRF-CEM leukemia) was 3.25 µM, the TGI (CCRF-CEM leukemia) was 18.3 µM and the GI50 (MDA-MB-231 breast) was 3.43 µM. For the same molecule, the TGI (MDA-MB-231 breast) was 14.8 µM, the GI50 (UACC-257 melanoma) was 3.84 µM and the TGI (UACC-257 melanoma) was 14.4 µM. It also gave a GI50 (SK-OV-3 ovarian) of 4.39 µM, a TGI (SK-OV-3 ovarian) of 17 µM and a GI50 (NCI-H522 lung) of 3.05 µM. For the same molecule, the TGI (NCI-H522 lung) was 13 µM, the GI50 (SF-268 CNS) was 5.95 µM and the TGI (SF-268 CNS) was 21.3 µM. For the same molecule, the GI50 (HL-60(TB) leukemia) was 3.01 µM, the TGI (HL-60(TB) leukemia) was 8.03 µM and the GI50 (LOX IMVI melanoma) was 4.5 µM. For the same molecule, the TGI (LOX IMVI melanoma) was 16.9 µM, the GI50 (MDA-MB-435) was 3.61 µM and the TGI (MDA-MB-435) was 13.1 µM. The GI50 (NCI-H460 lung) was 3.4 µM, the TGI (NCI-H460 lung) was 11.6 µM and the GI50 (SR leukemia) was 2.72 µM. It also gave a TGI (SR leukemia) of 8.92 µM, a GI50 (SK-MEL-5 melanoma) of 2.31 µM and a TGI (SK-MEL-5 melanoma) of 5.65 µM. For the same molecule, the GI50 (SNB-75 CNS) was 3.45 µM, the TGI (SNB-75 CNS) was 16.4 µM and the GI50 (HOP-92 NSCLC) was 1.73 µM. It also gave a TGI (HOP-92 NSCLC) of 7.45 µM, a GI50 (HCC-2998 colon) of 6.15 µM and a TGI (HCC-2998 colon) of 19.8 µM. It also gave a GI50 (UO-31 renal) of 3.3 µM, a TGI (UO-31 renal) of 13.3 µM and a GI50 (NCI-H23 lung) of 4.03 µM. For the same molecule, the TGI (NCI-H23 lung) was 16.6 µM, the GI50 (DU-145 prostate) was 5.41 µM and the TGI (DU-145 prostate) was 20.3 µM. It also gave a GI50 (HT29 colon) of 4.25 µM, a TGI (HT29 colon) of 16.1 µM and a GI50 (SK-MEL-2 melanoma) of 3.15 µM. It also gave a TGI (SK-MEL-2 melanoma) of 13.7 µM, a GI50 (A549 NSCLC) of 3.68 µM and a TGI (A549 NSCLC) of 14.7 µM. For the same molecule, the GI50 (786-0 renal) was 6.1 µM, the TGI (786-0 renal) was 20.9 µM and the GI50 (RPMI-8226 leukemia) was 2.57 µM. The TGI (RPMI-8226 leukemia) was 8.22 µM, the GI50 (NCI/ADR-RES ovarian) was 6.05 µM and the TGI (NCI/ADR-RES ovarian) was 26.9 µM. It also gave a GI50 (M14 melanoma) of 4.32 µM, a TGI (M14 melanoma) of 18.4 µM and a GI50 (IGROV1 ovarian) of 7.18 µM. For the same molecule, the TGI (IGROV1 ovarian) was 25.4 µM, the GI50 (HCT-15 colon) was 3.27 µM and the TGI (HCT-15 colon) was 12.8 µM. For the same molecule, the GI50 (U251 CNS) was 3.78 µM, the TGI (U251 CNS) was 13.6 µM and the GI50 (MCF7 breast) was 3.26 µM. For the same molecule, the TGI (MCF7 breast) was 15 µM, the GI50 (MALME-3M melanoma) was 3.39 µM and the TGI (MALME-3M melanoma) was 11.1 µM. The GI50 (SNB-19 CNS) was 2.99 µM, the TGI (SNB-19 CNS) was 13 µM and the GI50 (KM12 colon) was 4.46 µM. For the same molecule, the TGI (KM12 colon) was 16.1 µM, the GI50 (TK-10 renal) was 4.65 µM and the TGI (TK-10 renal) was 17.2 µM.
With `COc1ccc2c(CCCCC(c3ccccc3)c3ccccc3)c3[n+](cc2c1OC)CCc1cc2c(cc1-3)OCO2` the GI50 (HS 578T breast) was 0.536 µM, the TGI (HS 578T breast) was 3.09 µM and the GI50 (NCI-H226 lung) was 0.28 µM. It also gave a TGI (NCI-H226 lung) of 1.85 µM, a GI50 (MDA-MB-435) of 0.106 µM and a TGI (MDA-MB-435) of 1.02 µM. It also gave a GI50 (SK-MEL-5 melanoma) of 0.0451 µM, a TGI (SK-MEL-5 melanoma) of 0.177 µM and a GI50 (NCI/ADR-RES ovarian) of 1.83 µM. For the same molecule, the TGI (NCI/ADR-RES ovarian) was 7.48 µM.
Work on `[O-]c1c2cc(-[n+]3c(-c4ccccc4)cc(-c4ccccc4)cc3-c3ccccc3)cc1CO[C@@H](c1ccccc1)[C@H](c1ccccc1)OCCOCCO[C@@H](c1ccccc1)[C@H](c1ccccc1)OC2` yielded a TGI (HS 578T breast) of 3.12 µM, a TGI (UACC-62 melanoma) of 1.39 µM and a TGI (CCRF-CEM leukemia) of 0.238 µM. The TGI (UO-31 renal) was > 100 µM, the TGI (DU-145 prostate) was 1.14 µM and the TGI (HT29 colon) was 0.646 µM.
